Source: the Deep4Chem optical property database
Values belong to the compound of their own block, whether it stands above or below them.

Test: solvent given as SMILES

Compound: COc1ccc(N2c3ccc4ccccc4c3-c3c4ccccc4cc[n+]3[B-]2(c2ccccc2)c2ccccc2)cc1
fluorescence lifetime (in Cc1ccccc1): 0.25 ns

fluorescence lifetime (in CCO): 1.8 ns
fluorescence lifetime (in ClCCl): 5.8 ns
Compound: N#Cc1ncc(-c2c3ccccc3c(-c3cnc(C#N)nc3)c3ccccc23)cn1

Compound: c1cc2ccc3ccc4cc3c2cc1CCCCCCc1ccc2ccc3ccc-4cc3c2c1
fluorescence lifetime (in Cc1ccccc1): 8.7 ns

fluorescence lifetime (in C1CCCCC1): 0.85 ns
fluorescence lifetime (in CC#N): 2.72 ns
fluorescence lifetime (in CO): 5.38 ns
Compound: Cc1cc2ccc(-c3cccc4cccc(-c5ccc6cc(C)c(=O)oc6c5)c34)cc2oc1=O

fluorescence lifetime (in ClCCl): 4.5 ns
Compound: CCCCCCCCCCCCOc1cc2cc(N(C)C)ccc2cc1C=O

fluorescence lifetime (in CS(C)=O): 10.6 ns
Compound: Cn1c2ccc(S(=O)(=O)Cl)cc2c(=O)c2cc(S(=O)(=O)Cl)ccc21

fluorescence lifetime (in ClC(Cl)Cl): 3.88 ns
Compound: CCCCCCN1C(=O)c2cccc3c(-c4ccc(OC)s4)ccc(c23)C1=O

fluorescence lifetime (in C1CCOC1): 0.5 ns
Compound: COc1ccc(C(=Cc2ccc(/C=C(\C#N)c3ccccc3)cc2)c2ccc(OC)cc2)cc1

Compound: CCC1=C(C)C2=Cc3cc(I)cn3[B-](F)(F)[N+]2=C1C
fluorescence lifetime (in C1CCCCC1): 0.489 ns
fluorescence lifetime (in CC(C)=O): 0.317 ns
fluorescence lifetime (in CCO): 0.349 ns
fluorescence lifetime (in CCOC(C)=O): 0.362 ns
fluorescence lifetime (in CO): 0.324 ns
fluorescence lifetime (in OCC(F)(F)F): 0.308 ns

fluorescence lifetime (in C1COCCO1): 12 ns
fluorescence lifetime (in CS(C)=O): 0.17 ns
Compound: O=C1/C(=C2\Sc3ccc(S(=O)(=O)Cl)cc3C2=O)Sc2ccc(S(=O)(=O)Cl)cc21

fluorescence lifetime (in CC#N): 5.8 ns
Compound: C[n+]1cc2ccc3c[n+](C)c4ccccc4c3c2c2ccccc21

fluorescence lifetime (in CCO): 3.26 ns
fluorescence lifetime (in O): 2.44 ns
Compound: CN(C)c1ccc2c(-c3ccc(C(=O)[O-])cc3C(=O)[O-])c3ccc(=[N+](C)C)cc-3oc2c1

fluorescence lifetime (in ClCCl): 2.15 ns
Compound: F[B-]1(F)Oc2ccccc2-c2c3c(c4c([n+]21)CCc1ccccc1-4)CCc1ccccc1-3

fluorescence lifetime (in C1CCCCC1): 2.9 ns
fluorescence lifetime (in CS(C)=O): 1.6 ns
fluorescence lifetime (in ClC(Cl)Cl): 2.4 ns
Compound: CN(C)c1ccc(-c2cc(-c3ccc4ccccc4c3)nc(-c3ccccc3)n2)cc1

fluorescence lifetime (in CN(C)C=O): 4.85 ns
fluorescence lifetime (in CO): 0.99 ns
fluorescence lifetime (in CS(C)=O): 0.16 ns
fluorescence lifetime (in O): 0.13 ns
Compound: O=C1/C(=C2\Sc3ccc(S(=O)(=O)O)cc3C2=O)Sc2ccc(S(=O)(=O)O)cc21

fluorescence lifetime (in ClCCl): 5.9 ns
Compound: C[Si]1(C)c2ccc(-c3ccc(N(c4ccccc4)c4ccccc4)cc3)cc2C=Cc2cc(-c3ccc(N(c4ccccc4)c4ccccc4)cc3)ccc21

fluorescence lifetime (in CC1CCCCC1): 3.6 ns
fluorescence lifetime (in CC#N): 4.2 ns
Compound: C(=C\c1c2ccccc2cc2ccccc12)/c1ccccc1

fluorescence lifetime (in c1cc(-n2c3ccccc3c3ccccc32)cc(-n2c3ccccc3c3ccccc32)c1): 7.2 ns
Compound: CC(C)(C)c1ccc2c(c1)c1cc(C(C)(C)C)ccc1n2-c1ccc(-n2c3ccc(C(C)(C)C)cc3c3cc(C(C)(C)C)ccc32)c(-c2nccnc2C#N)c1

fluorescence lifetime (in ClCCl): 3.7 ns
Compound: CC(C)(C)c1ccc2c(c1)c1cc(C(C)(C)C)ccc1n2-c1ccc(C#Cc2ccc(C#Cc3ccc(C=C(C#N)C#N)cc3)cc2)cc1

fluorescence lifetime (in c1cc(-c2cccc(-n3c4ccccc4c4ccccc43)c2)cc(-n2c3ccccc3c3ccccc32)c1): 17 ns
Compound: CC(C)c1cc(C(C)C)c(B2c3cc(N4c5ccccc5C(C)(C)c5ccccc54)ccc3N(c3ccccc3)c3ccc(N4c5ccccc5C(C)(C)c5ccccc54)cc32)c(C(C)C)c1

fluorescence lifetime (in C1CCCCC1): 0.02 ns
fluorescence lifetime (in C1COCCO1): 0.02 ns
fluorescence lifetime (in CC#N): 0.02 ns
fluorescence lifetime (in CCO): 2.3 ns
fluorescence lifetime (in OCC(F)(F)F): 2.8 ns
Compound: Cc1cc2c(o1)c(C)cc1ccc(=O)oc12

fluorescence lifetime (in ClCCl): 6.87 ns
Compound: COc1cc(OC)cc(C2=[O+][B-](F)(F)OC(c3ccccc3)=C2)c1

fluorescence lifetime (in CC#N): 0.6 ns
fluorescence lifetime (in ClCCCl): 0.49 ns
Compound: Cc1ccc2nc3[nH]c(=O)[nH]c(=O)c3nc2c1

fluorescence lifetime (in ClCCl): 0.25 ns
Compound: CCN(CC)c1ccc2c(-c3ccccc3C(=O)O)c3c([o+]c2c1)/C(=C/c1ccc(N(C)C)cc1)CCC3

fluorescence lifetime (in CCC(C)C): 0.43 ns
Compound: Cc1ccsc1-c1ccc(-c2ccc(-c3sccc3C)s2)s1

fluorescence lifetime (in ClCCl): 8.2 ns
Compound: COc1ccc(Nc2nc(/C=C/c3ccccc3)[n+]([O-])c3c2CCCC3)cc1

fluorescence lifetime (in CCCCCC): 50.6 ns
fluorescence lifetime (in CO): 149 ns
fluorescence lifetime (in ClCCl): 77.8 ns
Compound: CC(C)c1ccc2ccc3cccc4ccc1c2c34

fluorescence lifetime (in C1CCOC1): 4.4 ns
Compound: C[Si](C)(C)c1ccc(-c2ccc(-c3ccc(-c4ccc(-c5ccc([Si](C)(C)C)s5)cc4)c4nsnc34)cc2)s1

Compound: CN(C)c1ccc2nc3c(cc2c1)c(-c1ccccc1)nn3-c1ccccc1
fluorescence lifetime (in C1CCCCC1): 16.1 ns
fluorescence lifetime (in C1CCOC1): 21 ns
fluorescence lifetime (in CC#N): 24.5 ns
fluorescence lifetime (in CC(C)=O): 23.4 ns
fluorescence lifetime (in CCCCCl): 20.1 ns
fluorescence lifetime (in CCCCOCCCC): 18.4 ns
fluorescence lifetime (in CN(C)C=O): 22.3 ns

fluorescence lifetime (in CC#N): 1.65 ns
Compound: Cc1cc(C)c2nc3[nH]c(=O)[nH]c(=O)c3nc2c1

Compound: Cn1cc(-c2nc3ccccc3nc2/C=C/N2CCCC2)c2ccccc21
fluorescence lifetime (in C1CCCCC1): 1.27 ns
fluorescence lifetime (in C1CCOC1): 5.12 ns
fluorescence lifetime (in CC#N): 6.75 ns
fluorescence lifetime (in CC(C)=O): 6.42 ns
fluorescence lifetime (in CCO): 0.75 ns
fluorescence lifetime (in CO): 0.19 ns
fluorescence lifetime (in CS(C)=O): 7.19 ns
fluorescence lifetime (in Cc1ccccc1): 3.62 ns
fluorescence lifetime (in ClCCl): 7.01 ns

fluorescence lifetime (in O): 3.66 ns
Compound: CN(C)c1ccc2c(c1)C(C)(C)C(=O)C=C2
